Series [1] in a line: Dispersability of diarylethene compounds in polymer solution (photochromic thin film composition). It counts as physicochemical. Also noted: key: ◯ = clear solution at RT; Δ = medium solubility; X = insoluble, phase separation and unclear solution. The settings on record: 10 wt. % diarylethene, chloroform + trichloroethylene, room temperature. The source says:
Solubilities of diarylethene compounds of the present invention and known diarylethene compounds were compared by dispersing in polycarbonate (PC) solution or fluorinated polyethylene.
Compared diarylethene compounds are 1-(6′-(5-phenylisoxazol) 2′-methylbenzo[b]thiophen-3′-yl)-2-(2″-methylbenzo[b]thiophen-3′-yl)hexafluorocyclopentene (PIMBTF6) prepared in Example 4 and 1,2-bis(2-methylbenzo[b]thiophen-3′-yl)hexafluorocyclopentene (BTF6) and 1-(6′-acetyl-2′-methylbenzo[b]thiophen-3′-yl)-2-(2″-methylbenzo[b]thiophen-3′-yl)hexafluorocyclopentene (AMBTF6) which are disclosed. Each thin film composition was prepared by dissolving 0.03 g (10 wt. %) of diarylethene compound and 0.27 g (90 wt. %) of polycarbonate (PC) or fluorinated polyethylene in a mixture of 1.2 g of chloroform and 1.2 g of trichloroethylene and stirring at room temperature for 6 hrs.

Series [2] in a line: Dispersability of diarylethene compounds in fluorinated diacrylate monomer (TFBDA) or THF. Particulars: room temperature. Details: key: ◯ = clear solution at RT; Δ = medium solubility; X = insoluble, phase separation and unclear solution. The series is classed as physicochemical. On the procedure:
Solubilities of diarylethene compounds of the present invention and known diarylethene compounds were compared by dispersing in fluorinated diacrylate monomer (TFBDA) or THF.
The same diarylethene compounds used in Examples 6-7 and Comparative Examples 1-4 are used to obtain the desired composition. Each thin film composition was prepared by dissolving 0.01 g (10 wt. %) of diarylethene compound and 0.002 g (2 wt. %) of 1-hydroxycyclohexyl phenyl ketone as photopolymerization initiator in 0.088 g (88 wt. %) of TFBDA and stirring at room temperature for 30 min.

Setting [3] is: 90 wt. % fluorinated polyethylene (Xeonex 480).

The record followed here is patent US6846934B2, “Photochromic diarylethene substituted with isoxazole group” (Korea Research Institute of Chemical Technology, priority 2001, dated 2005).

Consider `CC(=O)c1ccc2c(C3=C(c4c(C)sc5ccccc45)C(F)(F)C(F)(F)C3(F)F)c(C)sc2c1` [AMBTF6, 1-(6′-acetyl-2′-methylbenzo[b]thiophen-3′-yl)-2-(2″-methylbenzo[b]thiophen-3′-yl)hexafluorocyclopentene], for which the Dispersability entry in series [1] (setting [3]) was “X”; in series [1] (90 wt. % polycarbonate (PC)), “X”; in series [2] (10 wt. % diarylethene in TFBDA), “Δ”; in series [2] (solvent THF) it was “◯”.
With `Cc1sc2ccccc2c1C1=C(c2c(C)sc3ccccc23)C(F)(F)C(F)(F)C1(F)F` [BTF6, 1,2-bis(2-methylbenzo[b]thiophen-3′-yl)hexafluorocyclopentene], the Dispersability result in series [1] (setting [3]) is listed as “X”; in series [1] (90 wt. % polycarbonate (PC)) it was “◯”; in series [2] (10 wt. % diarylethene in TFBDA), “X”.
As to `Cc1sc2cc(-c3cc(-c4ccccc4)on3)ccc2c1C1=C(c2c(C)sc3cc(-c4cc(-c5ccccc5)on4)ccc23)C(F)(F)C(F)(F)C1(F)F` [DPIMBTF6, di(6′-phenylisoxazol-2′-methylbenzo[b]thiophen-3′-yl)hexafluorocyclopentene], the Dispersability entry in series [2] (10 wt. % diarylethene in TFBDA) is “◯”.
As for `Cc1sc2ccccc2c1C1=C(c2c(C)sc3cc(-c4cc(CO)on4)ccc23)C(F)(F)C(F)(F)C1(F)F` [IMBTF6, 1-(6′-(5-hydroxymethylisoxazol)-2′-methylbenzo[b]thiophen-3′-yl)-2-(2″-methylbenzo[b]thiophen-3′-yl)hexafluorocyclopentene], the figures for the Dispersability entry in series [2] (10 wt. % diarylethene in TFBDA) and in series [2] (solvent THF) were “X” and “◯”, respectively.
Consider `Cc1sc2ccccc2c1C1=C(c2c(C)sc3cc(-c4cc(-c5ccccc5)on4)ccc23)C(F)(F)C(F)(F)C1(F)F` [PIMBTF6, 1-(6′-(5-phenylisoxazol)-2′-methylbenzo[b]thiophen-3′-yl)-2-(2″-methylbenzo[b]thiophen-3′-yl)hexafluorocyclopentene], for which the Dispersability entry was “Δ” in series [1] (setting [3]), “◯” in series [1] (90 wt. % polycarbonate (PC)), “◯” in series [2] (10 wt. % diarylethene in TFBDA) and “◯” in series [2] (solvent THF).
